Results from patent US12384787B2, “Fused heterocyclic compounds and their use as pest control agents” (PI INDUSTRIES LTD., priority 2019, dated 2025).

tested on: Plutella xylostella; test: Plutella xylostella leaf dip method (cabbage leaves); format: in vivo; conditions: foliar, second instar larvae, 72 h after release, dead and moribund combined, compared to untreated control, read-out: Percent mortality
Method: The leaf dip method was used for testing, wherein the required quantity of the compounds were weighed and dissolved in a surfactant solution, kept on a Vortex at 2000 rpm with zirconia beads for 90 min for proper mixing and then diluted with 0.01% Triton-X solution to the desired test concentration. Cabbage leaves were dipped in the solution for 10 seconds, shade dried for 20 min and then transferred to bioassay trays. A single second instar larva was released into each bioassay tray cell and the tray was covered with a lid. The bio-assay trays were kept under laboratory conditions at a temperature of 25° C. and relative humidity of 70%. Observations on dead, moribund and living larvae were recorded at 72 h after the release. Percent mortality was calculated by combining dead and moribund larvae and comparing the result to the one of the untreated control.

SMILES	mortality at 300 ppm [%]
CCS(=O)(=O)c1nn2c(-c3cccc(F)c3)ccnc2c1-c1nc2cc(C(F)(F)F)ncc2n1C [Compound 137, 2-(2-(Ethylsulfonyl)-7-(3-fluorophenyl)pyrazolo[1,5-a]pyrimidin-3-yl)-3-methyl-6-(trifluoromethyl)-3H-imidazo[4,5-c]pyridine]	> 70
CCS(=O)(=O)c1nn2ccc(-c3cc(Cl)cc(Cl)c3)nc2c1-c1nc2cc(C(F)(F)F)ncc2n1C [Compound 69, 2-(5-(3,5-Dichlorophenyl)-2-(ethylsulfonyl)pyrazolo[1,5-a]pyrimidin-3-yl)-3-methyl-6-(trifluoromethyl)-3H-imidazo[4,5-c]pyridine]	> 70
CCS(=O)(=O)c1nn2ccc(-c3cc(Cl)cc(Cl)c3)nc2c1-c1nc2cc(C(F)(F)F)cnc2n1C [Compound 67, 2-(5-(3,5-Dichlorophenyl)-2-(ethylsulfonyl)pyrazolo[1,5-a]pyrimidin-3-yl)-3-methyl-6-(trifluoromethyl)-3H-imidazo[4,5-b]pyridine]	> 70
CCS(=O)(=O)c1nn2cccnc2c1-c1nc2cc(S(=O)(=O)C(F)(F)F)ccc2o1 [Compound 18, 2-(2-(Ethylsulfonyl)pyrazolo[1,5-a]pyrimidin-3-yl)-5-((trifluoromethyl)sulfonyl)benzo[d]oxazole]	> 70
CCS(=N)(=O)c1nn2c(-c3cc(Cl)cc(Cl)c3)ccnc2c1-c1nc2cc(C(F)(F)F)cnc2n1C (centres unmarked) [Compound 135, (7-(3,5-Dichlorophenyl)-3-(3-methyl-6-(trifluoromethyl)-3H-imidazo[4,5-b]pyridin-2-yl)pyrazolo[1,5-a]pyrimidin-2-yl)(ethyl)(imino)-λ^6-sulfanone]	> 70
CCS(=O)(=O)c1nn2cc(-c3ccc(OC(F)(F)F)cc3)cnc2c1-c1nc2cc(C(F)(F)F)ncc2n1C [Compound 100, 2-(2-(Ethylsulfonyl)-6-(4-(trifluoromethoxy)phenyl)pyrazolo[1,5-a]pyrimidin-3-yl)-3-methyl-6-(trifluoromethyl)-3H-imidazo[4,5-c]pyridine]	> 70
CCS(=O)(=O)c1nn2cc(-c3ccc(Cl)cc3)cnc2c1-c1nc2cc(C(F)(F)F)ncc2n1C [Compound 74, 2-(6-(4-Chlorophenyl)-2-(ethylsulfonyl)pyrazolo[1,5-a]pyrimidin-3-yl)-3-methyl-6-(trifluoromethyl)-3H-imidazo[4,5-c]pyridine]	> 70
CCS(=O)(=O)c1nn2ccc(-c3ccccc3)nc2c1-c1nc2cc(C(F)(F)F)ncc2n1C [Compound 46, 2-(2-(Ethylsulfonyl)-5-phenylpyrazolo[1,5-a]pyrimidin-3-yl)-3-methyl-6-(trifluoromethyl)-3H-imidazo[4,5-d]pyridine]	> 70
CCSc1nn2cc(Br)cnc2c1-c1nc2cc(C(F)(F)F)cnc2n1C [Compound 70, 2-(6-Bromo-2-(ethylthio)pyrazolo[1,5-a]pyrimidin-3-yl)-3-methyl-6-(trifluoromethyl)-3H-imidazo[4,5-b]pyridine]	> 70
CCS(=O)(=O)c1nn2c(-c3cccc(Cl)c3Cl)ccnc2c1-c1nc2cc(C(F)(F)F)cnc2n1C [Compound 114, 2-(7-(2,3-Dichlorophenyl)-2-(ethylsulfonyl)pyrazolo[1,5-a]pyrimidin-3-yl)-3-methyl-6-(trifluoromethyl)-3H-imidazo[4,5-b]pyridine]	> 70
CCS(=O)(=O)c1cc2cc(C(F)(F)F)ccn2c1-c1nc2cc(C(F)(F)F)cnc2n1C [Compound 5, 2-(2-(Ethylsulfonyl)-7-(trifluoromethyl)indolizin-3-yl)-3-methyl-6-(trifluoromethyl)-3H-imidazo[4,5-b]pyridine]	> 70
CCS(=O)(=O)c1nn2ccc(-c3ccc(F)cc3)nc2c1-c1nc2cc(C(F)(F)F)cnc2n1C [Compound 62, 2-(2-(Ethylsulfonyl)-5-(4-fluorophenyl)pyrazolo[1,5-a]pyrimidin-3-yl)-3-methyl-6-(trifluoromethyl)-3H-imidazo[4,5-b]pyridine]	> 70
CCS(=O)(=O)c1nn2c(-c3cc(Cl)cc(Cl)c3)ccnc2c1-c1nc2cc(S(=O)(=O)C(F)(F)F)ccc2o1 [Compound 43, 2-(7-(3,5-Dichlorophenyl)-2-(ethylsulfonyl)pyrazolo[1,5-a]pyrimidin-3-yl)-5-((trifluoromethyl)sulfonyl)benzo[d]oxazole]	> 70
CCS(=O)(=O)c1nn2c(-c3ccc(OC(F)(F)F)cc3)ccnc2c1-c1nc2cc(C(F)(F)F)cnc2n1C [Compound 29, 2-(2-(Ethylsulfonyl)-7-(4-(trifluoromethoxy)phenyl)pyrazolo[1,5-a]pyrimidin-3-yl)-3-methyl-6-(trifluoromethyl)-3H-imidazo[4,5-b]pyridine]	> 70
CCSc1nn2c(-c3ccc(Cl)cc3)ccnc2c1-c1nc2cc(C(F)(F)F)ncc2n1C [Compound 35, 2-(7-(4-Chlorophenyl)-2-(ethylthio)pyrazolo[1,5-a]pyrimidin-3-yl)-3-methyl-6-(trifluoromethyl)-3H-imidazo[4,5-c]pyridine]	> 70
CCSc1nn2cc(-c3cc(Cl)cc(Cl)c3)cnc2c1-c1nc2cc(C(F)(F)F)ncc2n1C [Compound 80, 2-(6-(3,5-Dichlorophenyl)-2-(ethylthio)pyrazolo[1,5-a]pyrimidin-3-yl)-3-methyl-6-(trifluoromethyl)-3H-imidazo[4,5-c]pyridine]	> 70
CCS(=O)(=O)c1nn2cc(-c3cc(Cl)cc(Cl)c3)cnc2c1-c1nc2cc(C(F)(F)F)ncc2n1C [Compound 81, 2-(6-(3,5-Dichlorophenyl)-2-(ethylsulfonyl)pyrazolo[1,5-a]pyrimidin-3-yl)-3-methyl-6-(trifluoromethyl)-3H-imidazo[4,5-c]pyridine]	> 70
CCS(=O)(=O)c1nn2cc(-c3ccc(OC(F)(F)C(F)F)cc3)cnc2c1-c1nc2cc(C(F)(F)F)cnc2n1C [Compound 96, 2-(2-(Ethylsulfonyl)-6-(4-(1,1,2,2-tetrafluoroethoxy)phenyl)pyrazolo[1,5-a]pyrimidin-3-yl)-3-methyl-6-(trifluoromethyl)-3H-imidazo[4,5-b]pyridine]	> 70
CCS(=O)(=O)c1nn2c(C)cc(C)nc2c1-c1nc2cc(C(F)(F)F)ncc2n1C [Compound 12, 2-(2-(Ethylsulfonyl)-5,7-dimethylpyrazolo[1,5-a]pyrimidin-3-yl)-3-methyl-6-(trifluoromethyl)-3H-imidazo[4,5-c]pyridine]	> 70
CCSc1nn2c(-c3ccc(F)cc3)ccnc2c1-c1nc2cc(C(F)(F)F)ncc2n1C [Compound 20, 2-(2-(Ethylthio)-7-(4-fluorophenyl)pyrazolo[1,5-a]pyrimidin-3-yl)-3-methyl-6-(trifluoromethyl)-3H-imidazo[4,5-c]pyridine]	> 70
CCSc1nn2cc(-c3ccc(OC(F)(F)C(F)F)cc3)cnc2c1-c1nc2cc(C(F)(F)F)cnc2n1C [Compound 95, 2-(2-(Ethylthio)-6-(4-(1,1,2,2-tetrafluoroethoxy)phenyl)pyrazolo[1,5-a]pyrimidin-3-yl)-3-methyl-6-(trifluoromethyl)-3H-imidazo[4,5-b]pyridine]	> 70
CCSc1nn2c(-c3ccc(OC(F)(F)F)cc3)ccnc2c1-c1nc2cc(C(F)(F)F)cnc2n1C [Compound 27, 2-(2-(Ethylthio)-7-(4-(trifluoromethoxy)phenyl)pyrazolo[1,5-a]pyrimidin-3-yl)-3-methyl-6-(trifluoromethyl)-3H-imidazo[4,5-b]pyridine]	> 70
CCS(=O)(=O)c1nn2c(-c3ccc(F)cc3)ccnc2c1-c1nc2cc(S(=O)(=O)C(F)(F)F)ccc2o1 [Compound 34, 2-(2-(Ethylsulfonyl)-7-(4-fluorophenyl)pyrazolo[1,5-a]pyrimidin-3-yl)-5-((trifluoromethyl)sulfonyl)benzo[d]oxazole]	> 70
CCS(=O)(=O)c1nn2c(-c3cccc(F)c3)ccnc2c1-c1nc2cc(C(F)(F)F)cnc2n1C [Compound 130, 2-(2-(Ethylsulfonyl)-7-(3-fluorophenyl)pyrazolo[1,5-a]pyrimidin-3-yl)-3-methyl-6-(trifluoromethyl)-3H-imidazo[4,5-b]pyridine]	> 70
CCS(=O)(=O)c1nn2ccc(-c3ccc(Cl)cc3)nc2c1-c1nc2cc(C(F)(F)F)cnc2n1C [Compound 88, 2-(5-(4-Chlorophenyl)-2-(ethylsulfonyl)pyrazolo[1,5-a]pyrimidin-3-yl)-3-methyl-6-(trifluoromethyl)-3H-imidazo[4,5-b]pyridine]	> 70
CCS(=O)(=O)c1cc2c(-c3cc(Cl)cc(Cl)c3)cccn2c1-c1nc2cc(C(F)(F)F)cnc2n1C [Compound 6, 2-(8-(3,5-Dichlorophenyl)-2-(ethylsulfonyl)indolizin-3-yl)-3-methyl-6-(trifluoromethyl)-3H-imidazo[4,5-b]pyridine]	> 70
CCS(=O)(=O)c1nn2c(-c3ccccc3)ccnc2c1-c1nc2cc(C(F)(F)F)cnc2n1C [Compound 115, 2-(2-(Ethylsulfonyl)-7-phenylpyrazolo[1,5-a]pyrimidin-3-yl)-3-methyl-6-(trifluoromethyl)-3H-imidazo[4,5-b]pyridine]	> 70
CCS(=O)(=O)c1nn2c(-c3ccc(Cl)cc3)ccnc2c1-c1nc2cc(S(=O)(=O)C(F)(F)F)ccc2o1 [Compound 40, 2-(7-(4-Chlorophenyl)-2-(ethylsulfonyl)pyrazolo[1,5-a]pyrimidin-3-yl)-5-((trifluoromethyl)sulfonyl)benzo[d]oxazole]	> 70
CCS(=O)(=O)c1nn2cc(-c3ccccc3)cnc2c1-c1nc2cc(C(F)(F)F)ncc2n1C [Compound 66, 2-(2-(Ethylsulfonyl)-6-phenylpyrazolo[1,5-a]pyrimidin-3-yl)-3-methyl-6-(trifluoromethyl)-3H-imidazo[4,5-c]pyridine]	> 70
